Earlier results on one molecule are cited in patent publication US20120289568A1, “COMBINATIONS OF OXYBUTYNIN AND SALIVARY STIMULANTS FOR THE TREATMENT OF OVERACTIVE BLADDER” (THERAVIDA, INC., priority 2011, published 2012).

For this series the following is noted: 5 mg of pilocarpine.

As for `CC[C@@H]1C(=O)OC[C@@H]1Cc1cncn1C` [pilocarpine], the “time of maximum saliva output after administration” value is reported as “about 30 minutes”.
